Consider eleven compounds from US11986471B2, “Compounds and methods of use” (Tango Therapeutics, Inc., priority 2018, dated 2024).

Some results are limits rather than exact numbers.

Experiment [1] deals with T1, PRMT5 (Homo sapiens, UniProt O14744).
T1 construct: purchased Viva (custom protein)
The experiment is described as follows: PRMT5 IC50 assay in the presence of MTA as cofactor. It is filed as biochemical. The following applies: for IC50: PRMT5, MTA as cofactor; for SAM/MTA Ratio: ratio between Ki in the presence of SAM and Ki in the presence of MTA. In outline: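 Three cofactor conditions tested for PRMT5 inhibition: none, MTA and SAM, each giving an IC50. For conversion to Ki, the MTA-condition IC50 is divided by 13.5 and the SAM-condition IC50 by 1.5, and the two Ki values are expressed as a SAM/MTA ratio.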

For the next experiment, the system named is HAP1 MTAP-deleted. Put plainly: SDMA in-cell western assay, HAP1 MTAP-deleted cell line. Type of experiment: cell-based. Conditions: for IC50: Homo sapiens, HAP1 MTAP-deleted cell line; for MTAP Intact/Deleted Ratio: IC50 ratio HAP1 MTAP-intact / HAP1 MTAP-deleted. Put shortly: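 In-cell western for SDMA marks; MTAP-deleted (null) HAP1 background; values given as IC50.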

Experiment [2] has as its target T1, PRMT5. The experiment is described as follows: PRMT5 IC50 assay with no cofactor. It is filed as biochemical. Conditions: read-out: No Co-factor IC50. Put shortly:
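Human PRMT5 inhibition, IC50 in μM; cofactor varied (SAM / MTA / none).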

The next experiment relates to HAP1 MTAP-intact. Put plainly: SDMA in-cell western assay, HAP1 MTAP-intact cell line. Type of experiment: cell-based. The following applies: Homo sapiens. In outline:
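Using an MTAP-isogenic HAP1 cell pair, inhibition of SDMA formation is read by in-cell western and expressed as IC50. MTAP-selectivity is assigned where the ratio between lines reaches 3 fold or greater.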

The target of experiment [3] is T1, PRMT5. The experiment is described as follows: PRMT5 IC50 assay in the presence of SAM as cofactor. Type of experiment: biochemical. In outline:
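For the SAM-containing format, dividing IC50 by 1.5 yields Ki; for the MTA-containing format the divisor is 13.5. A third format without cofactor gives IC50 alone.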

T1 sequence (O14744 whole entry): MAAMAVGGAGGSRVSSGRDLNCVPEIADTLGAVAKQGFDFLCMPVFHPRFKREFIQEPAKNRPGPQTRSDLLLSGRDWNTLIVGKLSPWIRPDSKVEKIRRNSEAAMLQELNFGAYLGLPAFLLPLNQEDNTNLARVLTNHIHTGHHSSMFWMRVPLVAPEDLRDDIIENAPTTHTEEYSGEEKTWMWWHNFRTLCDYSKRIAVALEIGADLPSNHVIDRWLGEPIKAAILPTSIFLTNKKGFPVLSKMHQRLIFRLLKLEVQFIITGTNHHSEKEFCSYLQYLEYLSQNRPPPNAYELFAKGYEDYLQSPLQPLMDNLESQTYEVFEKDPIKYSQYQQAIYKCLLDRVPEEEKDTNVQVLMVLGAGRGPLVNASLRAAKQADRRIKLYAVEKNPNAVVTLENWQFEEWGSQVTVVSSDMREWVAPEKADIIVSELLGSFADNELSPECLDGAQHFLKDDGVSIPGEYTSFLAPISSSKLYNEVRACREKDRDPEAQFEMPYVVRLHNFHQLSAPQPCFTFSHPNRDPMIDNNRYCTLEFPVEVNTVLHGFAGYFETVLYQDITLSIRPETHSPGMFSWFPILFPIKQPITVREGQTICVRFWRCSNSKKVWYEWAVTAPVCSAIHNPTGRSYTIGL
T1 sequence (Q9BQA1 whole entry partner): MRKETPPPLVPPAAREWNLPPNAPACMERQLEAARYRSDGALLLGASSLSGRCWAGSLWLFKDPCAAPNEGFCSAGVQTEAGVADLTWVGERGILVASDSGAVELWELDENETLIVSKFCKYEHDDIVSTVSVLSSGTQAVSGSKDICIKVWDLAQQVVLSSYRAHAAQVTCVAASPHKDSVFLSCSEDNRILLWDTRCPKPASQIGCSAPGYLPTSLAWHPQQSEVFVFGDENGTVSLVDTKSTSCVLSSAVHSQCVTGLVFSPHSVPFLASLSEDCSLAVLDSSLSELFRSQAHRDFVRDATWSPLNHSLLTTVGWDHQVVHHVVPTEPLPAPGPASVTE

For orientation: IC50 means the concentration that gives 50% inhibition. `O=C(NC[C@H](O)CN1CCc2cc(OCc3cnco3)ccc2C1)c1cc(NC2CCC2)nc(N2CCN(C(=O)C3CC3)CC2)c1` [Compound 378, (S)-2-(cyclobutylamino)-6-(4-(cyclopropanecarbonyl)piperazin-1-yl)-N-(2-hydroxy-3-(6-(oxazol-5-ylmethoxy)-3N-dihydroisoquinolin-2(1H)-yl)propyl)isonicotinamide]: the IC50 on PRMT5 [1] was 50 to 500 nM; in the experiment on HAP1 MTAP-deleted it was less than 1000 nM; at PRMT5 [2], 500 to 5000 nM; in the experiment on HAP1 MTAP-intact, less than 1000 nM; at PRMT5 [3] it was 50 to 500 nM. The “SAM/MTA Ratio” value at PRMT5 [1] was “A (a Ki ratio greater than or equal to 10 fold between the Ki in the presence of SAM and the Ki in the presence of MTA)”. The “MTAP Intact/Deleted Ratio” value with HAP1 MTAP-deleted is “C* (an IC50 ratio of less than 3 fold between the IC50 in the HAP1 MTAP-intact cell line and the HAP1 MTAP-deleted cell line)”.

Take `CC(=O)N1CC(Nc2cc(C(=O)NC[C@H](O)CN3CCc4cc(OCc5cnco5)ccc4C3)nc(C(C)(C)C)n2)C1` [Compound 379, (S)-6-((1-acetylazetidin-3-yl)amino)-2-(tert-butyl)-N-(2-hydroxy-3-(6-(oxazol-5-ylmethoxy)-3,4-dihydroisoquinolin-2(1H)-yl)propyl)pyrimidine-4-carboxamide]: the IC50 is 50 to 500 nM at PRMT5 [1]; less than 1000 nM in the experiment on HAP1 MTAP-deleted; 500 to 5000 nM on PRMT5 [2]; less than 1000 nM in the experiment with HAP1 MTAP-intact; 50 to 500 nM at PRMT5 [3]. In addition, the “SAM/MTA Ratio” value on PRMT5 [1] is “A (a Ki ratio greater than or equal to 10 fold between the Ki in the presence of SAM and the Ki in the presence of MTA)”. Also, the “MTAP Intact/Deleted Ratio” value in the experiment on HAP1 MTAP-deleted is “C* (an IC50 ratio of less than 3 fold between the IC50 in the HAP1 MTAP-intact cell line and the HAP1 MTAP-deleted cell line)”.

`CC(=O)N1CC(Nc2cc(C(=O)NC[C@H](O)CN3CCc4c(ccc(OCc5cnco5)c4Cl)C3)ccn2)C1` [Compound 380, (S)-2-((1-acetylazetidin-3-yl)amino)-N-(3-(5-chloro-6-(oxazol-5-ylmethoxy)-3,4-dihydroisoquinolin-2(1H)-yl)-2-hydroxypropyl)isonicotinamide]: the IC50 on PRMT5 [1] was 50 to 500 nM; in the experiment with HAP1 MTAP-deleted it was no less than 10000 nM; at PRMT5 [2], 500 to 5000 nM; with HAP1 MTAP-intact it was no less than 10000 nM; on PRMT5 [3], 50 to 500 nM. On PRMT5 [1], the “SAM/MTA Ratio” value is “A (a Ki ratio greater than or equal to 10 fold between the Ki in the presence of SAM and the Ki in the presence of MTA)”. Moreover, the “MTAP Intact/Deleted Ratio” value in the experiment with HAP1 MTAP-deleted was “C* (an IC50 ratio of less than 3 fold between the IC50 in the HAP1 MTAP-intact cell line and the HAP1 MTAP-deleted cell line)”.

As to `Cc1ncoc1COc1ccc2c(c1Br)CCN(C[C@@H](O)CNC(=O)c1cccc(NC3COC3)c1)C2` [Compound 381, (S)—N-(3-(5-bromo-6-((4-methyloxazol-5-yl)methoxy)-3,4-dihydroisoquinolin-2(1H)-yl)-2-hydroxypropyl)-3-(oxetan-3-ylamino)benzamide], the IC50 at PRMT5 [1] is 500 to 5000 nM; in the experiment with HAP1 MTAP-deleted it was no less than 10000 nM; on PRMT5 [2] it was no less than 5000 nM; in the experiment with HAP1 MTAP-intact it was no less than 10000 nM; on PRMT5 [3] it was 500 to 5000 nM. The “SAM/MTA Ratio” value on PRMT5 [1] was “A (a Ki ratio greater than or equal to 10 fold between the Ki in the presence of SAM and the Ki in the presence of MTA)”. Also, the “MTAP Intact/Deleted Ratio” value in the experiment on HAP1 MTAP-deleted was “C* (an IC50 ratio of less than 3 fold between the IC50 in the HAP1 MTAP-intact cell line and the HAP1 MTAP-deleted cell line)”.

As for `O=C(NC[C@H](O)CN1CCc2c(ccc(OCc3cnco3)c2Cl)C1)c1ccnc(NC2CCCC2)c1` [Compound 382, (S)—N-(3-(5-chloro-6-(oxazol-5-ylmethoxy)-3,4-dihydroisoquinolin-2(1H)-yl)-2-hydroxypropyl)-2-(cxclopentylamino)isonicotinamide], the IC50 was 50 to 500 nM at PRMT5 [1]; no less than 10000 nM in the experiment with HAP1 MTAP-deleted; 500 to 5000 nM at PRMT5 [2]; no less than 10000 nM in the experiment with HAP1 MTAP-intact; 50 to 500 nM on PRMT5 [3]. At PRMT5 [1], the “SAM/MTA Ratio” value was “A (a Ki ratio greater than or equal to 10 fold between the Ki in the presence of SAM and the Ki in the presence of MTA)”. The “MTAP Intact/Deleted Ratio” value in the experiment with HAP1 MTAP-deleted is “C* (an IC50 ratio of less than 3 fold between the IC50 in the HAP1 MTAP-intact cell line and the HAP1 MTAP-deleted cell line)”.

Take `O=C(NC[C@H](O)CN1CCc2cc(OCc3cnco3)ccc2C1)c1cncc(NC2CCOCC2)c1` [Compound 383]: the IC50 was 500 to 5000 nM on PRMT5 [1]; no less than 10000 nM in the experiment with HAP1 MTAP-deleted; no less than 5000 nM on PRMT5 [2]; no less than 10000 nM in the experiment on HAP1 MTAP-intact; 500 to 5000 nM on PRMT5 [3]. Besides, the “SAM/MTA Ratio” value at PRMT5 [1] was “A (a Ki ratio greater than or equal to 10 fold between the Ki in the presence of SAM and the Ki in the presence of MTA)”. In addition, in the experiment on HAP1 MTAP-deleted, the “MTAP Intact/Deleted Ratio” value is “C* (an IC50 ratio of less than 3 fold between the IC50 in the HAP1 MTAP-intact cell line and the HAP1 MTAP-deleted cell line)”.

As for `Cc1ncoc1COc1ccc2c(c1)CCN(C[C@@H](O)CNC(=O)c1cc(NC3CCC3)nc(N3CCOCC3)c1)C2` [Compound 384, 2-(cyclobutylamino)-N-[(2S)-2-hydroxy-3-{6-[(4-methyl-1,3-oxazol-5-yl)methoxy]-1,2,3,4-tetrahydroisoquinolin-2-yl}propyl]-6-(morpholin-4-yl)pyridine-4-carboxamide], the IC50 on PRMT5 [1] is 50 to 500 nM; with HAP1 MTAP-deleted it was less than 1000 nM; at PRMT5 [2], 500 to 5000 nM; in the experiment with HAP1 MTAP-intact, less than 1000 nM; at PRMT5 [3] it was 50 to 500 nM. Further, the “SAM/MTA Ratio” value at PRMT5 [1] is “A (a Ki ratio greater than or equal to 10 fold between the Ki in the presence of SAM and the Ki in the presence of MTA)”. In addition, the “MTAP Intact/Deleted Ratio” value in the experiment with HAP1 MTAP-deleted is “B* (an IC50 ratio greater than or equal to 3 fold but lower than 10 fold between the IC50 in the HAP1 MTAP-intact cell line and the HAP1 MTAP-deleted cell line)”.

With `CCN1CCN(c2nc(NC3COC3)cc(C(=O)NC[C@H](O)CN3CCc4c(ccc(OCc5ocnc5C)c4C)C3)n2)CC1` [Compound 385, 2-(4-ethylpiperazin-1-yl)-N-[(2S)-2-hydroxy-3-{5-methyl-6-[(4-methyl-1,3-oxazol-5-yl)methoxy]-1,2,3,4-tetrahydroisoquinolin-2-yl}propyl]-6-[(oxetan-3-yl)amino]pyrimidine-4-carboxamide], the IC50 was 50 to 500 nM at PRMT5 [1]; 1000 to 10000 nM in the experiment with HAP1 MTAP-deleted; no less than 5000 nM at PRMT5 [2]; no less than 10000 nM with HAP1 MTAP-intact; 50 to 500 nM at PRMT5 [3]. Also, the “SAM/MTA Ratio” value on PRMT5 [1] was “A (a Ki ratio greater than or equal to 10 fold between the Ki in the presence of SAM and the Ki in the presence of MTA)”. For the same compound, the “MTAP Intact/Deleted Ratio” value with HAP1 MTAP-deleted is “C* (an IC50 ratio of less than 3 fold between the IC50 in the HAP1 MTAP-intact cell line and the HAP1 MTAP-deleted cell line)”.

In the case of `Cc1c(OCc2cnco2)ccc2c1CCN(C[C@@H](O)CNC(=O)c1ccnc(NC3CCN(S(C)(=O)=O)CC3)c1)C2` [Compound 386, (S)—N-(2-hydroxy-3-(5-methyl-6-(oxazol-5-ylmethoxy)-3N-dihydroisoquinolin-2(1H)-yl)propyl)-2-((1-(methylsulfonyl)piperidin-4-yl)amino)isonicotinamide], the IC50 on PRMT5 [1] is 50 to 500 nM; in the experiment on HAP1 MTAP-deleted it was 1000 to 10000 nM; at PRMT5 [2], 500 to 5000 nM; in the experiment on HAP1 MTAP-intact it was no less than 10000 nM; at PRMT5 [3], 50 to 500 nM. Moreover, at PRMT5 [1], the “SAM/MTA Ratio” value is “A (a Ki ratio greater than or equal to 10 fold between the Ki in the presence of SAM and the Ki in the presence of MTA)”. For the same compound, in the experiment with HAP1 MTAP-deleted, the “MTAP Intact/Deleted Ratio” value was “C* (an IC50 ratio of less than 3 fold between the IC50 in the HAP1 MTAP-intact cell line and the HAP1 MTAP-deleted cell line)”.

Turning to `Cc1ncoc1COc1ccc2c(c1)CCN(C[C@@H](O)CNC(=O)c1cc(NC3COC3)nc(N3CCN(C)CC3)n1)C2` [Compound 387], the half-maximal inhibitory concentration (IC50) on PRMT5 [1] was 50 to 500 nM; in the experiment with HAP1 MTAP-deleted, less than 1000 nM; on PRMT5 [2], 500 to 5000 nM; in the experiment on HAP1 MTAP-intact it was 1000 to 10000 nM; on PRMT5 [3] it was 50 to 500 nM. In addition, the “SAM/MTA Ratio” value at PRMT5 [1] is “A (a Ki ratio greater than or equal to 10 fold between the Ki in the presence of SAM and the Ki in the presence of MTA)”. Further, in the experiment with HAP1 MTAP-deleted, the “MTAP Intact/Deleted Ratio” value was “B* (an IC50 ratio greater than or equal to 3 fold but lower than 10 fold between the IC50 in the HAP1 MTAP-intact cell line and the HAP1 MTAP-deleted cell line)”.

Take `Cc1ncoc1COc1ccc2c(c1)CCN(C[C@@H](O)CNC(=O)c1cc(NC3CCCCC3)ncn1)C2` [Compound 388, 6-(cyclohexylamino)-N-[(2S)-2-hydroxy-3-{6-[(4-methyl-1,3-oxazol-5-yl)methoxy]-1,2,3,4-tetrahydroisoquinolin-2-yl}propyl]pyrimidine-4-carboxamide]: the concentration for half-maximal inhibition (IC50) at PRMT5 [1] is 50 to 500 nM; in the experiment with HAP1 MTAP-deleted it was less than 1000 nM; on PRMT5 [2], no less than 5000 nM; with HAP1 MTAP-intact, less than 1000 nM; on PRMT5 [3] it was 50 to 500 nM. For the same compound, the “SAM/MTA Ratio” value on PRMT5 [1] is “A (a Ki ratio greater than or equal to 10 fold between the Ki in the presence of SAM and the Ki in the presence of MTA)”. Besides, the “MTAP Intact/Deleted Ratio” value in the experiment on HAP1 MTAP-deleted was “B* (an IC50 ratio greater than or equal to 3 fold but lower than 10 fold between the IC50 in the HAP1 MTAP-intact cell line and the HAP1 MTAP-deleted cell line)”.
